Results published in PMC12888920, “MMP-9 regulates disulphide isomerase activity of TGM2 to enhance fusion glycoprotein-mediated syncytium formation of respiratory syncytial virus” (Protein & Cell, 2025).
One block for each molecule: values may come before it.

Experiments:
HEp-2 cells = assay: Cell viability assay (CellTiter-Glo) in HEp-2 cells; format: cell-based
Description: (§1) Figure 7. MMP-9-mediated TGM2 cleavage potentiates RSV–host interaction. (A) Cytotoxicity profiling. Dose-response curves of TGM2 inhibitors (ZED-1227, Cystamine, Bacitracin, E64FC26, ML359) in HEp-2 cells (72 h treatment). Viability was assessed by CellTiter-Glo assay. Data normalized to untreated controls. mean ± SD, n = 3. (B) Antiviral efficacy. Viral inhibition (FFA) in RSV A2-infected HEp-2 cells treated with TGM2 inhibitors at threefold dilution gradients: ZED-1227 (60–10 µmol/L), Cystamine (200–22.2 µmol/L), Bacitracin (500–50 µmol/L), E64FC26 (0.2–0.05 µmol/L), and ML359 (10–1.1 µmol/L). DMSO as vehicle control. mean ± SD, n = 3. (C) TGM2–F protein interaction. Co-IP analysis in HEK293T cells co-expressing TGM2 and RSV F (48 h). Immunoblots were probed with anti-TGM2, anti-F, or IgG control. Blots represent three independent experiments. (D) Binding kinetics. BLI quantification of TGM2–DS-Cav1 (RSV F prefusion conformation) interaction. The results represent three biological replicates. (E) Ternary complex formation. Co-IP of MMP-9-TGM2-F complex in HEK293T cells (48 h). GAPDH as loading control. Below the asterisk represents the objective band. Blots represent three independent experiments. (F) Impairing MMP-9/TGM2/RSV-F complex inhibits RSV infection. […] (G) Proteolytic enhancement. MMP-9-cleaved TGM2 (TGM2-44) enhances protein disulfide isomerase (PDI) activity was measured using reduced DS-Cav1. mean ± SD, n = 3. (H) Truncation functional analysis. Viral titers (FFA) in HEp-2 cells expressing MMP-9, TGM2, or cleavage fragments (TGM2-44/41) post RSV infection (MOI = 1, 72 hpi). mean ± SD, n = 3. (I) Syncytium rescue. Syncytia area quantification in TGM2 truncation-expressing cells (ImageJ software). mean ± SD, n = 3. (J) Subcellular redistribution. Confocal microscopy of HEp-2 cells co-expressing TGM2 truncations (HA/FLAG-tagged) and RSV F (72 hpi). Scale bar: 10 µm. Images represent three biological replicates. (K) F protein expression. Fluorescence intensity quantification of RSV F in (J) (ImageJ software). mean ± SD, n = 3. (L) Fusion competence assay. Syncytium formation in HEK293T cells co-expressing TGM2 truncations and RSV F/F-C37S/C69S mutants (48 h). Scale bar: 10 µm. Images represent three biological replicates. (M) Mutant validation. RSV F expression levels in (L) were quantified by ImageJ software. mean ± SD, n = 3. The results are representatively shown with three random experiments. The error bars indicate the mean ± SD of three technical replicates (n = 3). […]
(§2) (B-C) Cytotoxicity profiles in HEp-2 (B) and HBEC (C) cells. […] Viability was assessed using the CellTiter-Glo assay (G7570, Promega). […]
(§3) 95 Cell viability was evaluated using a CellTiter -Glo® Luminescent Cell Viability Assay 96 kit (G7571, Promega) according to the manufacturer’s instructions. […]

RSV A2 [1] = assay: Viral inhibition (FFA) in RSV A2-infected HEp-2 cells treated with TGM2 inhibitors; format: cell-based, Respiratory syncytial virus; conditions: HEp-2, RSV A2; ZED-1227 60–10, Cystamine 200–22.2, Bacitracin 500–50, E64FC26 0.2–0.05, ML359 10–1.1 µmol/L
Description: Figure 7. MMP-9-mediated TGM2 cleavage potentiates RSV–host interaction. (A) Cytotoxicity profiling. Dose-response curves of TGM2 inhibitors (ZED-1227, Cystamine, Bacitracin, E64FC26, ML359) in HEp-2 cells (72 h treatment). Viability was assessed by CellTiter-Glo assay. Data normalized to untreated controls. mean ± SD, n = 3. (B) Antiviral efficacy. Viral inhibition (FFA) in RSV A2-infected HEp-2 cells treated with TGM2 inhibitors at threefold dilution gradients: ZED-1227 (60–10 µmol/L), Cystamine (200–22.2 µmol/L), Bacitracin (500–50 µmol/L), E64FC26 (0.2–0.05 µmol/L), and ML359 (10–1.1 µmol/L). DMSO as vehicle control. mean ± SD, n = 3. (C) TGM2–F protein interaction. Co-IP analysis in HEK293T cells co-expressing TGM2 and RSV F (48 h). Immunoblots were probed with anti-TGM2, anti-F, or IgG control. Blots represent three independent experiments. (D) Binding kinetics. BLI quantification of TGM2–DS-Cav1 (RSV F prefusion conformation) interaction. The results represent three biological replicates. (E) Ternary complex formation. Co-IP of MMP-9-TGM2-F complex in HEK293T cells (48 h). GAPDH as loading control. Below the asterisk represents the objective band. Blots represent three independent experiments. (F) Impairing MMP-9/TGM2/RSV-F complex inhibits RSV infection. […] (G) Proteolytic enhancement. MMP-9-cleaved TGM2 (TGM2-44) enhances protein disulfide isomerase (PDI) activity was measured using reduced DS-Cav1. mean ± SD, n = 3. (H) Truncation functional analysis. Viral titers (FFA) in HEp-2 cells expressing MMP-9, TGM2, or cleavage fragments (TGM2-44/41) post RSV infection (MOI = 1, 72 hpi). mean ± SD, n = 3. (I) Syncytium rescue. Syncytia area quantification in TGM2 truncation-expressing cells (ImageJ software). mean ± SD, n = 3. (J) Subcellular redistribution. Confocal microscopy of HEp-2 cells co-expressing TGM2 truncations (HA/FLAG-tagged) and RSV F (72 hpi). Scale bar: 10 µm. Images represent three biological replicates. (K) F protein expression. Fluorescence intensity quantification of RSV F in (J) (ImageJ software). mean ± SD, n = 3. (L) Fusion competence assay. Syncytium formation in HEK293T cells co-expressing TGM2 truncations and RSV F/F-C37S/C69S mutants (48 h). Scale bar: 10 µm. Images represent three biological replicates. (M) Mutant validation. RSV F expression levels in (L) were quantified by ImageJ software. mean ± SD, n = 3. The results are representatively shown with three random experiments. The error bars indicate the mean ± SD of three technical replicates (n = 3). Statistical analysis: one-way ANOVA with Dunnett’s post hoc test (B, F, G, H, I, K, M); unpaired two-tailed Student’s t-test (F, H, I, K, M). *P < 0.05, **P < 0.01, ***P < 0.001; ns, not significant.

RSV A2 [2] = assay: Antiviral activity (FFA) against RSV A2 in HEp-2 cells; format: cell-based; conditions: human respiratory syncytial virus; HEp-2, RSV A2, MOI = 0.1, 72 hpi; read-out: EC50
Excerpt: (§4) Figure 1. Antiviral activity of metalloproteinase inhibitors against RSV in vitro. (A) Experimental workflow for RSV A2 infection and compound treatment. (B) High-throughput screening of TargetMol L1100 library (246 host protease inhibitors targeting 10 pathways: MMPs, caspases, proteasomes, apoptosis regulators, cysteine proteases, gamma-secretase, autophagy modulators, serine proteases, DPP-4, and beta-secretase) using concentration gradients (1, 5, 10 µmol/L). HEp-2 cells were pretreated with compounds for 1 hour prior to RSV A2 infection (MOI = 0.1). Plaque formation was quantified at 72 hours post-infection (hpi) and normalized to DMSO controls. […] (G) Target overlap analysis of four MMP-9-targeting inhibitors. (H) Viral titers in supernatants of HEp-2 cells transfected with MMP-specific siRNAs (24 h) followed by RSV A2 infection (MOI = 1, 72 h). mean ± SD, n = 3. The results are representatively shown with three random experiments. The error bars indicate the mean ± SD of three technical replicates (n = 3). Statistical significance was determined by one-way ANOVA with Dunnett’s post hoc test: *P < 0.05, ***P < 0.001; ns, not significant. […]
(§5) 110 overtly cytotoxic) underwent dose -response validation (0.00004 –10 μM) to generate
(§6) 111 EC50 curves (GraphPad Prism 8.0) .
(§7) 112 Evaluation of in vitro antiviral activity
(§8) 113 Compound inhibitor treatments: HEp-2 cells (1.3×10⁴/well) or HBEC (1.8×10⁴/well)
(§9) 114 were pretreated with test compounds for 1 h before RSV A2/B18537 infection
(§10) 115 (MOI=0.1 or 0.3). Viral inhibition was quantified at 72 hpi via FFA. Fixed cells (4%
(§11) 116 PFA) were permeabilized (0.3% Triton X-100), stained with anti-RSV-FITC
(§12) 118 Fluorescent foci were normalized to nuclear counts (ImageJ software) for EC 50
(§13) 119 determination via four-parameter logistic regression (GraphPad Prism 8.0). Data
(§14) 120 represent triplicate experiments. […]

RSV B18537 [3] = assay: Antiviral activity (FFA) against RSV B18537 in HEp-2 cells; format: cell-based; conditions: human respiratory syncytial virus; HEp-2, RSV B18537, MOI = 0.1, 72 hpi; read-out: EC50
Excerpt: as §4
109 111813, MCE) and 0.1% DMSO vehicle. Primary hits (>50% CPE reduction + not
as §5, §6, §7, §8, §9, §10, §11, §12, §13, §14

RSV A2 [4] = assay: Antiviral activity (FFA) against RSV A2 in primary human bronchial epithelial cells (HBEC); format: cell-based; conditions: human respiratory syncytial virus, Epithelial cell; HBEC, RSV A2, MOI = 0.3, 72 hpi; read-out: EC50
Excerpt: as §4, §7, §8, §9, §10, §11, §12, §13, §14

RSV B18537 [5] = assay: Antiviral activity (FFA) against RSV B18537 in HBEC; format: cell-based; conditions: human respiratory syncytial virus; HBEC, RSV B18537, MOI = 0.3, 72 hpi; read-out: EC50
Excerpt: as §4, §7, §8, §9, §10, §11, §12, §13, §14

[6] = Cell viability assay (CellTiter-Glo) in HEp-2 cells; format: cell-based; conditions: human
Description: as §1, §2, §3

RSV F protein (DS-Cav1) = assay: Biolayer interferometry, TGM2 binding to RSV F protein (DS-Cav1); parameters: species or system Respiratory syncytial virus; conditions: BLI, biotinylated DS-Cav1 on SA biosensors
Description: Figure 7. MMP-9-mediated TGM2 cleavage potentiates RSV–host interaction. (A) Cytotoxicity profiling. Dose-response curves of TGM2 inhibitors (ZED-1227, Cystamine, Bacitracin, E64FC26, ML359) in HEp-2 cells (72 h treatment). Viability was assessed by CellTiter-Glo assay. Data normalized to untreated controls. mean ± SD, n = 3. (B) Antiviral efficacy. Viral inhibition (FFA) in RSV A2-infected HEp-2 cells treated with TGM2 inhibitors at threefold dilution gradients: ZED-1227 (60–10 µmol/L), Cystamine (200–22.2 µmol/L), Bacitracin (500–50 µmol/L), E64FC26 (0.2–0.05 µmol/L), and ML359 (10–1.1 µmol/L). DMSO as vehicle control. mean ± SD, n = 3. (C) TGM2–F protein interaction. […] BLI quantification of TGM2–DS-Cav1 (RSV F prefusion conformation) interaction. […] MMP-9-cleaved TGM2 (TGM2-44) enhances protein disulfide isomerase (PDI) activity was measured using reduced DS-Cav1. mean ± SD, n = 3. […] Syncytia area quantification in TGM2 truncation-expressing cells (ImageJ software). mean ± SD, n = 3. […] Fluorescence intensity quantification of RSV F in (J) (ImageJ software). mean ± SD, n = 3. […] RSV F expression levels in (L) were quantified by ImageJ software. mean ± SD, n = 3. […]
271 TGM2) were quantified using a Sartorius Octet R4 system. […]
275 equilibration. MMP-9 (MCE) binding was assessed across two concentration ranges: […]
281 (Sartorius) at 20 µg/mL. TGM2 binding was evaluated across 0 –100 µM (7 […]

Molecule: CCOC(=O)C1(CCOc2ccccc2)CCN(Cc2ccc(O)c(Cl)c2)CC1 [ML359]
CC50 (HEp-2 cells): 26100 nM
inhibition of RSV replication (antiviral efficacy) (RSV A2 [1]): strong antiviral efficacy

EC50 (RSV A2 [2]): 2.6 nM
EC50 (RSV B18537 [3]): 32.9 nM
EC50 (RSV A2 [4]): 45.5 nM
EC50 (RSV B18537 [5]): 47.1 nM
Molecule: Cc1cnc(N2CC3(CCOCC3)C2)c(C(=O)Nc2ccc(C(=O)N3CCc4cc(C(=O)Nc5c(C)cccc5F)sc4-c4ccccc43)cc2)c1 [PC786]

Molecule: CCC(CC)CNC(=O)Cn1cccc(NC(=O)[C@H](CC/C=C/C(=O)OC)NC(=O)c2cncn2C)c1=O [ZED-1227]
CC50 at 72 h [6]: 78700 nM
inhibition of RSV replication (antiviral efficacy) (RSV A2 [1]): did not inhibit RSV replication

Molecule: Bacitracin
inhibition of RSV replication (antiviral efficacy) (RSV A2 [1]): strong antiviral efficacy

Molecule: TGM2: recombinant transglutaminase 2 protein used in BLI
Kd (RSV F protein (DS-Cav1)): 6310 nM
